≈ marks a conversion by molar mass, not a printed value. Read-outs that look alike come from different tables or passages of the source.
Legend:
Test in all cases: In vitro antibacterial activity, agar plate dilution method (MIC)
[1] = tested on: Ps.maltophilia GN 12873; format: cell-based, Pseudomonas maltophilia; conditions: Stenotrophomonas maltophilia, GN12873; Ps.maltophilia GN 12873 (β-Lactamase-producing strain); Mueller Hinton agar, inoculum 10⁶ CFU/ml, 37°C, 16 hours; read-out: Minimum Inhibitory Concentration (MIC: µg/ml)
Experimental: (§1) The in vitro antibacterial activities of the compounds of the present invention against various microorganisms, were measured by the following agar plate dilution method. One platinum loopfull of each test microorganism incubated overnight in Mueller Hinton broth, was inoculated to Mueller Hinton agar (inoculum size: l0⁶ CFU/ml). Such culture media containing various antibiotics in various concentrations were prepared. After incubation at 37°C for l6 hours, the minimum inhibitory concentrations (MIC: µg/ml) were measured. As comparative compounds, Cefotaxime, Ceftazidime and the compounds of Reference Examples l to 4 were employed.

[2] = tested on: E.coli NIHJ JC2; format: cell-based; conditions: Escherichia coli, NIHJJC2; E.coli NIHJ JC2; Mueller Hinton agar, inoculum 10⁶ CFU/ml, 37°C, 16 hours; read-out: Minimum Inhibitory Concentration (MIC: µg/ml)
Experimental: as §1

[3] = tested on: P.vulgaris No. 33; format: cell-based; conditions: Proteus vulgaris, read-out: Minimum Inhibitory Concentration (MIC: µg/ml)
Experimental: as §1

[4] = tested on: S.aureus 209P NIHJ-JC1; format: cell-based; conditions: Staphylococcus aureus; S.aureus 209P NIHJ-JC1; Mueller Hinton agar, inoculum 10⁶ CFU/ml, 37°C, 16 hours; read-out: Minimum Inhibitory Concentration (MIC: µg/ml)
Experimental: as §1

[5] = tested on: Ps.aeruginosa AK 109; format: cell-based; conditions: Pseudomonas aeruginosa, AK109; Ps.aeruginosa AK 109; Mueller Hinton agar, inoculum 10⁶ CFU/ml, 37°C, 16 hours; read-out: Minimum Inhibitory Concentration (MIC: µg/ml)
Experimental: as §1

[6] = tested on: C.freundii GN346/16; format: cell-based; conditions: Citrobacter freundii; C.freundii GN346/16; Mueller Hinton agar, inoculum 10⁶ CFU/ml, 37°C, 16 hours; read-out: Minimum Inhibitory Concentration (MIC: µg/ml)
Experimental: as §1

[7] = tested on: Ps.aeruginosa IFO3445; format: cell-based; conditions: Pseudomonas aeruginosa; Ps.aeruginosa IFO3445; Mueller Hinton agar, inoculum 10⁶ CFU/ml, 37°C, 16 hours; read-out: Minimum Inhibitory Concentration (MIC: µg/ml)
Experimental: as §1

[8] = tested on: S.aureus BB5703; format: cell-based; conditions: Staphylococcus aureus; S.aureus BB5703; Mueller Hinton agar, inoculum 10⁶ CFU/ml, 37°C, 16 hours; read-out: Minimum Inhibitory Concentration (MIC: µg/ml)
Experimental: as §1

[9] = tested on: A.calcoaceticus No. 4; format: cell-based; conditions: Acinetobacter calcoaceticus; A.calcoaceticus No. 4; Mueller Hinton agar, inoculum 10⁶ CFU/ml, 37°C, 16 hours; read-out: Minimum Inhibitory Concentration (MIC: µg/ml)
Experimental: as §1

[10] = tested on: E.coli CSH2 (RK1); format: cell-based; conditions: Escherichia coli, 16 h, read-out: Minimum Inhibitory Concentration (MIC: µg/ml)
Experimental: as §1

[11] = tested on: S.marcescens No. 16-2; format: cell-based; conditions: Serratia marcescens, NO.162; S.marcescens No. 16-2 (β-Lactamase-producing strain); Mueller Hinton agar, inoculum 10⁶ CFU/ml, 37°C, 16 hours; read-out: Minimum Inhibitory Concentration (MIC: µg/ml)
Experimental: as §1

[12] = tested on: Ps.aeruginosa AKR17; format: cell-based; conditions: Pseudomonas aeruginosa; Ps.aeruginosa AKR17; Mueller Hinton agar, inoculum 10⁶ CFU/ml, 37°C, 16 hours; read-out: Minimum Inhibitory Concentration (MIC: µg/ml)
Experimental: as §1

[13] = tested on: P.vulgaris HX-19; format: cell-based; conditions: Proteus vulgaris, HX19; P.vulgaris HX-19; Mueller Hinton agar, inoculum 10⁶ CFU/ml, 37°C, 16 hours; read-out: Minimum Inhibitory Concentration (MIC: µg/ml)
Experimental: as §1

[14] = tested on: E.cloacae Nek 39; format: cell-based; conditions: Enterobacter cloacae, NEK39; E.cloacae Nek 39 (β-Lactamase-producing strain); Mueller Hinton agar, inoculum 10⁶ CFU/ml, 37°C, 16 hours; read-out: Minimum Inhibitory Concentration (MIC: µg/ml)
Experimental: as §1

[15] = tested on: S.aureus JS1; format: cell-based; conditions: Staphylococcus aureus; S.aureus JS1 (β-Lactamase-producing strain); Mueller Hinton agar, inoculum 10⁶ CFU/ml, 37°C, 16 hours; read-out: Minimum Inhibitory Concentration (MIC: µg/ml)
Experimental: as §1

[16] = tested on: E.coli GN5482; format: cell-based; conditions: Escherichia coli; E.coli GN5482 (β-Lactamase-producing strain); Mueller Hinton agar, inoculum 10⁶ CFU/ml, 37°C, 16 hours; read-out: Minimum Inhibitory Concentration (MIC: µg/ml)
Experimental: as §1

[17] = tested on: K.pneumoniae No. 42; format: cell-based; conditions: Klebsiella pneumoniae; K.pneumoniae No. 42 (β-Lactamase-producing strain); Mueller Hinton agar, inoculum 10⁶ CFU/ml, 37°C, 16 hours; read-out: Minimum Inhibitory Concentration (MIC: µg/ml)
Experimental: as §1

[18] = tested on: K.oxytoca GN10650; format: cell-based; conditions: Klebsiella oxytoca, read-out: Minimum Inhibitory Concentration (MIC: µg/ml)
Experimental: as §1

[19] = tested on: E.coli CSH(RE45); format: cell-based; conditions: Escherichia coli, 16 h, read-out: Minimum Inhibitory Concentration (MIC: µg/ml)
Experimental: as §1

[20] = tested on: K.pneumoniae PCI-602; format: cell-based; conditions: Klebsiella pneumoniae, PCI602; K.pneumoniae PCI-602; Mueller Hinton agar, inoculum 10⁶ CFU/ml, 37°C, 16 hours; read-out: Minimum Inhibitory Concentration (MIC: µg/ml)
Experimental: as §1

[21] = tested on: M.luteus ATCC9341; format: cell-based; conditions: Micrococcus luteus; M.luteus ATCC9341; Mueller Hinton agar, inoculum 10⁶ CFU/ml, 37°C, 16 hours; read-out: Minimum Inhibitory Concentration (MIC: µg/ml)
Experimental: as §1

[22] = tested on: S.epidermidis IAM12012; format: cell-based; conditions: Staphylococcus epidermidis; S.epidermidis IAM12012; Mueller Hinton agar, inoculum 10⁶ CFU/ml, 37°C, 16 hours; read-out: Minimum Inhibitory Concentration (MIC: µg/ml)
Experimental: as §1

[23] = tested on: S.marcescens IAM 1184; format: cell-based; conditions: Serratia marcescens, read-out: Minimum Inhibitory Concentration (MIC: µg/ml)
Experimental: as §1

[24] = tested on: C.freundii GN346; format: cell-based; conditions: Citrobacter freundii; C.freundii GN346 (β-Lactamase-producing strain); Mueller Hinton agar, inoculum 10⁶ CFU/ml, 37°C, 16 hours; read-out: Minimum Inhibitory Concentration (MIC: µg/ml)
Experimental: as §1

[25] = tested on: E.cloacae 963; format: cell-based; conditions: Enterobacter cloacae; E.cloacae 963; Mueller Hinton agar, inoculum 10⁶ CFU/ml, 37°C, 16 hours; read-out: Minimum Inhibitory Concentration (MIC: µg/ml)
Experimental: as §1

[26] = tested on: M.morganii GN5407; format: cell-based; conditions: Morganella morganii; M.morganii GN5407 (β-Lactamase-producing strain); Mueller Hinton agar, inoculum 10⁶ CFU/ml, 37°C, 16 hours; read-out: Minimum Inhibitory Concentration (MIC: µg/ml)
Experimental: as §1

[27] = tested on: Ps.cepacia 23; format: cell-based, Pseudomonas cepacia; conditions: Burkholderia cepacia; Ps.cepacia 23; Mueller Hinton agar, inoculum 10⁶ CFU/ml, 37°C, 16 hours; read-out: Minimum Inhibitory Concentration (MIC: µg/ml)
Experimental: as §1

Compound	MIC [1] [µg/mL]	MIC [2] [µg/mL]	MIC [4] [µg/mL]	MIC [5] [µg/mL]	MIC [6] [µg/mL]	MIC [7] [µg/mL]	MIC [8] [µg/mL]	MIC [9] [µg/mL]	MIC [10] [µg/mL]	MIC [11] [µg/mL]	MIC [12] [µg/mL]	MIC [13] [µg/mL]	MIC [14] [µg/mL]	MIC [15] [µg/mL]	MIC [16] [µg/mL]	MIC [17] [µg/mL]	MIC [19] [µg/mL]	MIC [20] [µg/mL]	MIC [21] [µg/mL]	MIC [22] [µg/mL]	further results
C=CCON=C(C(=O)NC1C(=O)N2C(C(=O)[O-])=C(C[n+]3ccc4cc(O)c(O)cc4c3)CS[C@H]12)c1csc(N)n1 (stereo partly drawn) [Ex. 3, 7-[2-allyloxyimino-2-(2-aminothiazol-4-yl)acetamido]-3-(6,7-dihydroxy-2-isoquinolinio)methyl-3-cephem-4-carboxylate]	> 100	0.1 (≈ 0.172 µM)	0.78 (≈ 1.34 µM)	0.78 (≈ 1.34 µM)	0.39 (≈ 0.669 µM)	0.39 (≈ 0.669 µM)	6.25 (≈ 10.7 µM)	0.2 (≈ 0.343 µM)	0.0125 (≈ 0.0215 µM)	1.56 (≈ 2.68 µM)	100 (≈ 172 µM)	< 0.006	0.1 (≈ 0.172 µM)	12.5 (≈ 21.5 µM)	0.39 (≈ 0.669 µM)	0.1 (≈ 0.172 µM)	0.025 (≈ 0.0429 µM)	< 0.006	0.2 (≈ 0.343 µM)	0.39 (≈ 0.669 µM)	MIC ([3]; P.vulgaris No. 33 (β-Lactamase-producing strain), Mueller Hinton agar, inoculum 10⁶ CFU/ml, 37°C, 16 hours): 0.1 µg/mL (≈ 0.172 µM); MIC ([18]; K.oxytoca GN10650 (β-Lactamase-producing strain), Mueller Hinton agar, inoculum 10⁶ CFU/ml, 37°C, 16 hours): 3.12 µg/mL (≈ 5.36 µM); MIC ([23]; IAM1184, 16 h): 0.0125 µg/mL (≈ 0.0215 µM); MIC [24]: 50 µg/mL (≈ 85.8 µM); MIC [25]: 0.05 µg/mL (≈ 0.0858 µM); MIC [26]: 0.05 µg/mL (≈ 0.0858 µM); MIC [27]: < 0.006 µg/mL
Nc1nc(/C(=N/OC2(C(=O)O)CCCC2)C(=O)NC2C(=O)N3C(C(=O)[O-])=C(C[n+]4ccc5cc(O)c(O)cc5c4)CSC23)cs1 (stereo not drawn) [Ex. 5, 7-[2-(2-aminothiazol-4-yl)-2-(l-carboxy-l-cyclopentyloxyimino)acetamido]-3-(6,7-dihydroxy-2-isoquinolinio)methyl-3-cephem-4-carboxylate]	1.56 (≈ 2.38 µM)	0.05 (≈ 0.0764 µM)	25 (≈ 38.2 µM)	0.39 (≈ 0.596 µM)	1.56 (≈ 2.38 µM)	0.39 (≈ 0.596 µM)	50 (≈ 76.4 µM)	0.1 (≈ 0.153 µM)	0.0125 (≈ 0.0191 µM)	0.1 (≈ 0.153 µM)	0.39 (≈ 0.596 µM)	< 0.006	< 0.006	100 (≈ 153 µM)	0.2 (≈ 0.305 µM)	0.05 (≈ 0.0764 µM)	0.78 (≈ 1.19 µM)	< 0.006	3.12 (≈ 4.77 µM)	6.25 (≈ 9.55 µM)	MIC ([3]; NO.33, 16 h): 0.0125 µg/mL (≈ 0.0191 µM); MIC ([18]; GN10650, 16 h): 0.0125 µg/mL (≈ 0.0191 µM); MIC ([23]; IAM1184, S.marcescens IAM 1184, Mueller Hinton agar, inoculum 10⁶ CFU/ml, 37°C, 16 hours): < 0.006 µg/mL; MIC [24]: 50 µg/mL (≈ 76.4 µM); MIC [25]: 0.05 µg/mL (≈ 0.0764 µM); MIC [26]: 0.1 µg/mL (≈ 0.153 µM); MIC [27]: < 0.006 µg/mL

Source: patent EP0238060B1, “Cephalosporin derivatives, processes for their preparation and antibacterial agents” (Banyu Pharmaceutical Co., Ltd., priority 1986, dated 1987)
